Paper PMC2954226, “Structure of the γ-D-glutamyl-L-diamino acid endopeptidase YkfC from Bacillus cereus in complex with L-Ala-γ-D-Glu: insights into substrate recognition by NlpC/P60 cysteine peptidases” (Acta Crystallographica Section F: Structural Biology and …, 2010)
Non-standard residues stand in square brackets, D forms with d. Residues, ends and D or L forms follow the SMILES beside them.

Biological target: T1, BcYkfC (Bacillus cereus, UniProt Q736M3)
T1 construct: gene ykfC; signal peptide (residues 1-23) removed; N-terminal His tag cut by TEV leaving Gly0; selenomethionine protein from E. coli; SH3b1 (29-129), SH3b2 (130-207) and NlpC/P60 (208-333) domains; model 29-333; monomer
T1 sequence (Q736M3 24-333): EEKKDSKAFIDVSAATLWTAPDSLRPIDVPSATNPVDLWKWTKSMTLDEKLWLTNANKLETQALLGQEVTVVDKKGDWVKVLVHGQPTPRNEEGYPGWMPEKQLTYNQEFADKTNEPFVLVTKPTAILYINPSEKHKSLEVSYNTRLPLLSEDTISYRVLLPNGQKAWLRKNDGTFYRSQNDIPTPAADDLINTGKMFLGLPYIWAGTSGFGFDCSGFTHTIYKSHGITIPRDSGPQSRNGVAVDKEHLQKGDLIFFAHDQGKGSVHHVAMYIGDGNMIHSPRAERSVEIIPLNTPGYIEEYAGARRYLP
Assay: X-ray crystal structure, […] Å (SeMet MAD)
Format: binding
Conditions: ligand co-purified, most likely from E. coli expression host; S2-S1 site; catalytic Cys238 oxidized (OCS), enzyme inactive in the crystal; crystallized at pH 4.2, 277 K

Question: How did the “X-ray crystal structure, 1.79 Å (SeMet MAD)” value turn out when C[C@H](N)C(=O)N[C@H](CCC(=O)O)C(=O)O [L-Ala-γ-D-Glu] (H-Ala-[dE]-OH) was run?
Answer: The dipeptide L-Ala-γ-D-Glu was identified from well defined electron density in the active site
